According to ChEMBL document CHEMBL1121606, “Synthesis and beta-adrenergic blocking activity of new aliphatic oxime ethers” (J Med Chem, 1980):
Calls of active or inactive are those of the source. The calls are words filed in the database; no cut-off is given here.

Tests used:
Type in all cases: functional, organism-based
Cavia porcellus [1] = species: Cavia porcellus; experiment: Antagonism of the isoprenaline-induced positive chronotropic effect on the atria of guinea pig; Inactive at 1e-4 mol/L
Cavia porcellus [2] = species: Cavia porcellus; experiment: Antagonism of the isoprenaline-induced positive chronotropic effect on the atria of guinea pig at 3e-4 M/l; details: read-out: pA2 (converted)
Cavia porcellus [3] = species: Cavia porcellus; experiment: The apparent pA2 value was measured for beta-2-adrenergic blocking activity on the trachea of guinea pig; Inactive at 3e-4

SMILES | pA2 (Cavia porcellus [1]) | Kb (Cavia porcellus [2]) | pA2 (Cavia porcellus [3])
CC(C)(C)NCC(O)CO (stereo not drawn) | inactive |  | 
CC(C)NCC(O)CNC(C)C |  | 200 µM | inactive
